Some test systems named below: SK-MEL-2; SNB-75; RXF 393; BT-549; ACHN; M14; SK-MEL-28; OVCAR-5; NCI-H226; OVCAR-8; MDA-MB-231; HCC 2998; SN12C; Hs-578T; EKVX; UO-31; A549; MOLT-4; KM12; CAKI-1.
Assay in all cases: inhibition of tumour cell growth, NCI panel, 48 h

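Results reflect a 48-hour exposure of cells in 96-well plates to compound at five concentrations. GI50 marks 50% less growth.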 Active and inactive are the calls of the source. No stated cut-off is given here; in the data, active = GI50 up to about 1.1 µM and inactive = higher.

The values that follow come from ChEMBL document CHEMBL1201862, “PubChem BioAssay data set” (2004).

Consider `OC1C#CCSCC#C/C=C\1` (centres undefined), for which the GI50 with SK-MEL-2 is > 100 µM (inactive); with SNB-75, > 100 µM (inactive); in the assay on RXF 393, 18 µM (inactive); in the assay with BT-549, > 100 µM (inactive); in the assay with ACHN, > 100 µM (inactive); in the assay with M14 it was > 100 µM (inactive). The GI50 in the assay with SK-MEL-28 is 89.5 µM (inactive); in the assay with OVCAR-5, > 100 µM (inactive); in the assay with NCI-H226, > 100 µM (inactive); in the assay on OVCAR-8, 3.72 µM (inactive); in the assay with MDA-MB-231, > 100 µM (inactive); in the assay with HCC 2998, > 100 µM (inactive). Also, the GI50 in the assay on SN12C was 94 µM (inactive); in the assay with Hs-578T, 34 µM (inactive); in the assay on EKVX, > 100 µM (inactive); with UO-31, > 100 µM (inactive).
Take `CC(=O)NC1=C(NCCCl)C(=O)c2ccccc2C1=O`: the GI50 with SNB-75 was 24.3 µM (inactive); in the assay with RXF 393 it was 30 µM (inactive); with BT-549, 47.9 µM (inactive); in the assay on ACHN, 42.8 µM (inactive); in the assay with A549 it was 35.4 µM (inactive); in the assay with M14, 13 µM (inactive). Besides, the GI50 is 72.3 µM (inactive) in the assay with SK-MEL-28; 81.8 µM (inactive) with OVCAR-5; 25.1 µM (inactive) in the assay with MOLT-4; 49.1 µM (inactive) in the assay on NCI-H226; 20 µM (inactive) in the assay on OVCAR-8; 36.7 µM (inactive) in the assay with MDA-MB-231. Further, the GI50 with KM12 was 31.8 µM (inactive); in the assay with HCC 2998, 32.7 µM (inactive); in the assay on SN12C it was 34.7 µM (inactive); in the assay on Hs-578T, 43.5 µM (inactive); in the assay on EKVX it was > 100 µM (inactive).
Regarding `CCCc1nc2c(n1CC)C(=O)c1ccccc1C2=O`, the GI50 in the assay on SNB-75 was 24.8 µM (inactive); in the assay on RXF 393 it was 26.9 µM (inactive); with BT-549, 79.8 µM (inactive); in the assay on ACHN, 40.3 µM (inactive); with A549, 46.5 µM (inactive); with M14 it was 33.2 µM (inactive). The GI50 in the assay with SK-MEL-28 was 82.2 µM (inactive); in the assay with OVCAR-5, > 100 µM (inactive); with MOLT-4, 17 µM (inactive); in the assay on NCI-H226, 56 µM (inactive); with MDA-MB-231, 79.6 µM (inactive); in the assay on KM12, 40.3 µM (inactive). Moreover, the GI50 with HCC 2998 is 30.8 µM (inactive); with SN12C it was 30.5 µM (inactive); in the assay on Hs-578T, > 100 µM (inactive).
On to `O=C(Nn1c(-c2ccccc2)nc2ccccc2c1=O)c1ccc(Cl)cc1`, for which the GI50 with SNB-75 was 27.1 µM (inactive); in the assay with RXF 393, > 100 µM (inactive); in the assay on BT-549 it was > 100 µM (inactive); in the assay on ACHN it was 94.2 µM (inactive); in the assay on A549 it was 67.9 µM (inactive); in the assay with M14 it was > 100 µM (inactive). For the same compound, the GI50 with SK-MEL-28 was > 100 µM (inactive); in the assay on OVCAR-5 it was > 100 µM (inactive); with MOLT-4, 59.6 µM (inactive); with NCI-H226, > 100 µM (inactive); in the assay with OVCAR-8, > 100 µM (inactive); with MDA-MB-231, > 100 µM (inactive). For the same compound, the GI50 with KM12 was > 100 µM (inactive); with HCC 2998 it was > 100 µM (inactive); with SN12C it was > 100 µM (inactive); in the assay with Hs-578T it was 34 µM (inactive); in the assay on EKVX, > 100 µM (inactive); with UO-31 it was 65.6 µM (inactive).
Take `COc1c(O)c2c(c3cc(C(=O)N4CCc5c4c(O)c(OC)c4[nH]c(C(=O)N6CC7CC78C6=CC(=O)c6[nH]cc(C)c68)cc54)[nH]c13)CCN2C(N)=O` (centres undefined) [CC-1065]: the GI50 is 0.00356 µM (active) with SNB-75; 0.188 µM (active) with RXF 393; 1.04 µM (active) in the assay with BT-549; 0.00298 µM (active) in the assay on ACHN; 0.000232 µM (active) in the assay on A549; 0.0016 µM (active) in the assay with M14. Besides, the GI50 was 0.00184 µM (active) in the assay on SK-MEL-28; 0.0164 µM (active) with MOLT-4; 0.000212 µM (active) in the assay on NCI-H226; 0.000317 µM (active) in the assay with OVCAR-8; 0.486 µM (active) in the assay with MDA-MB-231; 0.003 µM (active) in the assay with KM12. Moreover, the GI50 in the assay on HCC 2998 is 0.114 µM (active); in the assay with CAKI-1 it was 0.000975 µM (active); in the assay on SN12C it was 0.000685 µM (active); with Hs-578T it was 0.294 µM (active); in the assay with EKVX, 0.867 µM (active); in the assay with UO-31, 0.00834 µM (active).
